Several values for one entry are separate records, joined by “and”; a condition that tells them apart may be missing. Identical values can stand only once.
Legend:
rat liver mitochondria = experiment: ADP-stimulated rotenone-sensitive OCR in isolated rat liver mitochondria; type: biochemical; design: rotenone sensitive OCR after ADP stimulation, individual replicates / rotenone sensitive OCR after ADP stimulation, average: unit not given here; conditions: for rotenone sensitive OCR after ADP stimulation, % of control, average / rotenone sensitive OCR after ADP stimulation, average: average of replicates; for rotenone sensitive OCR after ADP stimulation, % of control, individual replicates / rotenone sensitive OCR after ADP stimulation, individual replicates: replicate 1-5
Description: (§1) Complex I and mitochondrial membranes were prepared from Bos taurus (bovine) heart. Intact mitochondria were isolated from rat liver and mouse heart and liver. Membranes were prepared from mouse heart mitochondria by 5 s bursts of sonication at 4 °C and collected by centrifugation (75,000 × g, 1 h).
(§2) Isolated mitochondria were monitored using a Seahorse XF96 extracellular flux analyzer at 32 °C. Mouse heart mitochondria, and mouse and rat liver mitochondria were plated into XF96 plates at 4 and 16–20 μg per well, respectively, in 220 mM mannitol, 70 mM sucrose, 10 mM KH2PO4, 5 mM MgCl2, 1 mM EGTA, 0.2 % fatty acid-free BSA, and 2 mM HEPES (pH 7.4 at 37 °C) with 10 mM glutamate and 10 mM malate and adhered by centrifugation (2000 × g, 20 min, 4 °C). The medium was supplemented with a further 5 mM glutamate and 5 mM malate and the mitochondria incubated for 15 min. Then two baseline readings were taken before the biguanides were added at IC50/5. Biguanides were allowed to accumulate for 15–20 min before respiration was uncoupled by the addition of 4 mM ADP. Rotenone (2 μM) was added at the end of the experiment. Data from wells with failed port injections were excluded from the analyses. The RCR values (state III versus state IV respiration) were 3.4, 4.8, and 4.6 for mouse heart, rat liver, and mouse liver, respectively.

mouse heart mitochondria = experiment: ADP-stimulated rotenone-sensitive OCR in isolated mouse heart mitochondria; type: biochemical; design: rotenone sensitive OCR after ADP stimulation, individual replicates / rotenone sensitive OCR after ADP stimulation, average / rotenone sensitive OCR after 15 mins, average: unit not given here; conditions: for rotenone sensitive OCR after ADP stimulation, % of control, average / rotenone sensitive OCR after ADP stimulation, average: average of replicates; for rotenone sensitive OCR after ADP stimulation, % of control, individual replicates: replicate 1-11; for rotenone sensitive OCR after ADP stimulation, individual replicates: replicate 1-12
Description: as §1
as §2, with “Biguanides were allowed to accumulate for 15–20 min before respiration was uncoupled by the addition of 4 mM ADP.” left out

permeabilized MDBK cells = experiment: ADP-stimulated rotenone-sensitive OCR in permeabilized MDBK cells; type: cell-based, Bos taurus; design: rotenone sensitive OCR after ADP stimulation, average / rotenone sensitive OCR after ADP stimulation: unit not given here; conditions: for rotenone sensitive OCR after ADP stimulation, % of control, average / rotenone sensitive OCR after ADP stimulation, average / rotenone sensitive OCR after ADP stimulation / rotenone sensitive OCR after ADP stimulation, % of control: MDBK permeabilised cells; for rotenone sensitive OCR after ADP stimulation, % of control, average / rotenone sensitive OCR after ADP stimulation, average: average of replicates; for rotenone sensitive OCR after ADP stimulation / rotenone sensitive OCR after ADP stimulation, % of control: individual replicates
Description: For permeabilized cell experiments, cells were seeded into XF96 plates at 0.9–1.1 × 10^4 per well and incubated for 48 h at 37 °C in 5 % CO2. Then, the growth medium was exchanged for assay buffer containing 3 nM plasma membrane permeabilizer ‘PMP’ (Seahorse Biosciences Inc.), 10 mM glutamate, 10 mM malate, 220 mM mannitol, 70 mM sucrose, 10 mM KH2PO4, 5 mM MgCl2, 1 mM EGTA, 0.2 % fatty acid-free bovine serum albumin (BSA), and 2 mM HEPES (pH 7.4 at 37 °C). […] The biguanides were allowed to accumulate for 30 min, then respiration was […] by the addition of 4 mM ADP. Rotenone was added (2 μM) at the end of the experiment.
Rotenone-sensitive OCRs were calculated by subtracting the rotenone-insensitive rates (determined at the end of the experiment). OCRs were normalized by dividing by the OCR recorded immediately prior to the addition of biguanide. For rate of uptake calculations, the OCRs at time points after biguanide addition were divided by the OCRs at the same time points in control experiments. Data from wells with failed port injections were excluded from the analyses. The respiratory control ratio (RCR) values (state III versus state IV respiration) were ~11 and ~6 for permeabilized MDBK and 143B cells, respectively.

[1] = target: bovine heart mitochondrial membranes (complex I) (Bos taurus, UniProt P03887+P03898+P17694+P42026); experiment: NADH:O2 oxidoreduction by bovine heart mitochondrial membranes (complexes I-III-IV); type: biochemical; conditions: for LogIC50 (best fit value): log of concentration in mM; for LogIC50 (best fit value) / IC50 / HillSlope (best fit value): sample given as Bovine heart mitochondrial membranes, Bottom 0, Top 100; for LogIC50 (best fit value) / HillSlope (best fit value): Prism variable slope fit; for IC50: Prism log(inhibitor) vs. response variable slope fit (four parameters), read-out: IC50 (best fit value)
Chain of bovine heart mitochondrial membranes (complex I) (P42026 38-216): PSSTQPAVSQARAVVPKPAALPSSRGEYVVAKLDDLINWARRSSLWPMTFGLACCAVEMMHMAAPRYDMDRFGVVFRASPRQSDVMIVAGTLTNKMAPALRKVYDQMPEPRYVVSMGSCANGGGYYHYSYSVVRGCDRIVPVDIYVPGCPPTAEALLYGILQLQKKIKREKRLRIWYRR
Chain of bovine heart mitochondrial membranes (complex I) (P17694 34-463): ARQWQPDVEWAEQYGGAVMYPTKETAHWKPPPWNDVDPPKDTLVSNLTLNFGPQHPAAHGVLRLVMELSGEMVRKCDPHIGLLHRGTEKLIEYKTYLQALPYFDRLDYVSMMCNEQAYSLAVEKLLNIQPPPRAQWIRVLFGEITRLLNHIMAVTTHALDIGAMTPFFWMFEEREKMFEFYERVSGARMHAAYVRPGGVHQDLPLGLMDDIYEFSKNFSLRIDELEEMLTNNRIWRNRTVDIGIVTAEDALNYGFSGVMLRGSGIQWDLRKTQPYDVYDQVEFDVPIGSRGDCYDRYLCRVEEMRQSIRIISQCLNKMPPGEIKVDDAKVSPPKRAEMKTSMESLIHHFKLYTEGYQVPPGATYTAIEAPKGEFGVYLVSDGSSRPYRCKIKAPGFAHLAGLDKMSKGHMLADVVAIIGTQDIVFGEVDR
Chain of bovine heart mitochondrial membranes (complex I) (P03887 whole entry): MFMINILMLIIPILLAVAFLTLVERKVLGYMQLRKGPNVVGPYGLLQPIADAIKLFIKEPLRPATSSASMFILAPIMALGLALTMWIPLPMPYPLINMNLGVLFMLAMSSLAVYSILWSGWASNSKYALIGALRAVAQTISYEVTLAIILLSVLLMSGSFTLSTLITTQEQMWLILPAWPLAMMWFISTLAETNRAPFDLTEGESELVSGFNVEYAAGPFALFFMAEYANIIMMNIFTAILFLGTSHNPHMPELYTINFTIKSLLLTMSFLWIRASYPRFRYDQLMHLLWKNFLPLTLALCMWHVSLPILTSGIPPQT
Chain of bovine heart mitochondrial membranes (complex I) (P03898 whole entry): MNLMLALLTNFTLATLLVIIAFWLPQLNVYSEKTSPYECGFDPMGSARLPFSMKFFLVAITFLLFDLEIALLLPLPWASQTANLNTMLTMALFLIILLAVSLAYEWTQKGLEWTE
How it was run: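 Spectrophotometric NADH oxidation (ε340–380 4.81 mM^−1 cm^−1) at 32 °C. Membranes at 5 μg mL^−1 in 10 mM Tris-HCl pH 7.4, 250 mM sucrose, 200 μM NADH, 0.15 mM cytochrome c; purified complex I at 0.5 μg mL^−1 in 20 mM Tris-HCl pH 7.2, 0.15 % asolectin/CHAPS, 200 μM each decylubiquinone and NADH. IC50 from dose-effect fit, Hill slope fixed at 1 for purified enzyme.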

| Structure (SMILES) | rotenone sensitive OCR after ADP stimulation, % of control, average (rat liver mitochondria) | rotenone sensitive OCR after ADP stimulation, average (rat liver mitochondria) | rotenone sensitive OCR after ADP stimulation, % of control, individual replicates (rat liver mitochondria) | rotenone sensitive OCR after ADP stimulation, individual replicates (rat liver mitochondria) | rotenone sensitive OCR after ADP stimulation, % of control, average (mouse heart mitochondria) | rotenone sensitive OCR after ADP stimulation, average (mouse heart mitochondria) | rotenone sensitive OCR after ADP stimulation, % of control, individual replicates (mouse heart mitochondria) | rotenone sensitive OCR after ADP stimulation, individual replicates (mouse heart mitochondria) | rotenone sensitive OCR after ADP stimulation, % of control, average (permeabilized MDBK cells) | rotenone sensitive OCR after ADP stimulation, average (permeabilized MDBK cells) | rotenone sensitive OCR after ADP stimulation, % of control, average (permeabilized MDBK cells; biguanide at IC50/5) | rotenone sensitive OCR after ADP stimulation, average (permeabilized MDBK cells; biguanide at IC50/5) | rotenone sensitive OCR after ADP stimulation (permeabilized MDBK cells; biguanide at IC50/5) | rotenone sensitive OCR after ADP stimulation, % of control (permeabilized MDBK cells; biguanide at IC50/5) | LogIC50 (best fit value) [1] | IC50 [1] [mM] | HillSlope (best fit value) [1] | also measured |
| --- | --- | --- | --- | --- | --- | --- | --- | --- | --- | --- | --- | --- | --- | --- | --- | --- | --- | --- |
| CC(C)N=C(N)N=C(N)N [compound 4, 1-(diaminomethylidene)-2-(propan-2-yl)guanidine] | 8.94 % of control | 2.45 | 10.19 % of control and 7.26 % of control and 8.19 % of control and 10.12 % of control | 2.79 and 1.99 and 2.25 and 2.77 | 23.15 % of control | 56.07 | 28.98 % of control and 23.60 % of control and 23.95 % of control and 23.54 % of control and 25.71 % of control and 23.25 % of control and 16.50 % of control and 19.68 % of control | 70.20 and 57.15 and 58.01 and 57.01 and 62.27 and 56.30 and 39.95 and 47.67 | 3.16 % of control | 8.89 | 3.16 % of control | 8.89 | 14.20 and 41.21 and 15.97 and 1.99 and -24.18 and 20.17 and 9.00 and -7.21 | 5.04 % of control and 14.62 % of control and 5.67 % of control and 0.71 % of control and -8.58 % of control and 7.16 % of control and 3.19 % of control and -2.56 % of control | 1.46 | 28.8 | -1.156 | inhibition of OCR (permeabilized MDBK cells; MDBK cells, 30 min, data used for Fig. 4c matrix concentration estimate): exceeded 90%; remaining activity at 620 µM ([1]; bovine heart mitochondrial membranes, inhibitor 0.62 mM, read-out: average % (rate, % of no-inhibitor control)): 96.7%; remaining activity at 1560 µM ([1]; bovine heart mitochondrial membranes, inhibitor 1.56 mM, read-out: average % (rate, % of no-inhibitor control)): 95.7%; remaining activity at 3120 µM ([1]; bovine heart mitochondrial membranes, inhibitor 3.12 mM, read-out: average % (rate, % of no-inhibitor control)): 92.6%; remaining activity at 6250 µM ([1]; bovine heart mitochondrial membranes, inhibitor 6.25 mM, read-out: average % (rate, % of no-inhibitor control)): 84.6%; remaining activity at 12500 µM ([1]; bovine heart mitochondrial membranes, inhibitor 12.50 mM, read-out: average % (rate, % of no-inhibitor control)): 72.6%; remaining activity at 25000 µM ([1]; bovine heart mitochondrial membranes, inhibitor 25.00 mM, read-out: average % (rate, % of no-inhibitor control)): 56.6%; remaining activity at 50000 µM ([1]; bovine heart mitochondrial membranes, inhibitor 50.00 mM, read-out: average % (rate, % of no-inhibitor control)): 32.5% |
| CC(C)N=C(N)N=C(N)NC(C)C [compound 5, N-(propan-2-yl)-1-3-(propan-2-yl)carbamimidamidomethanimidamide] | 92.45 % of control | 25.35 | 107.71 % of control and 88.69 % of control and 80.94 % of control | 29.53 and 24.32 and 22.19 | 111.59 % of control | 270.26 | 121.74 % of control and 137.11 % of control and 79.19 % of control and 109.33 % of control and 124.83 % of control and 108.07 % of control and 108.05 % of control and 104.41 % of control | 294.85 and 332.07 and 191.79 and 264.79 and 302.34 and 261.73 and 261.69 and 252.86 | 94.54 % of control | 266.44 | 94.54 % of control | 266.44 | 341.66 and 308.83 and 224.55 and 216.86 and 280.18 and 213.17 and 210.97 and 335.32 | 121.23 % of control and 109.59 % of control and 79.68 % of control and 76.95 % of control and 99.42 % of control and 75.64 % of control and 74.86 % of control and 118.98 % of control | -0.4916 | 0.322 | -0.7631 | remaining activity at 25 µM ([1]; bovine heart mitochondrial membranes, inhibitor 0.025 mM, read-out: average % (rate, % of no-inhibitor control)): 88.2%; remaining activity at 50 µM ([1]; bovine heart mitochondrial membranes, inhibitor 0.05 mM, read-out: average % (rate, % of no-inhibitor control)): 80.7%; remaining activity at 120 µM ([1]; bovine heart mitochondrial membranes, inhibitor 0.12 mM, read-out: average % (rate, % of no-inhibitor control)): 67.1%; remaining activity at 250 µM ([1]; bovine heart mitochondrial membranes, inhibitor 0.25 mM, read-out: average % (rate, % of no-inhibitor control)): 53.5%; remaining activity at 500 µM ([1]; bovine heart mitochondrial membranes, inhibitor 0.50 mM, read-out: average % (rate, % of no-inhibitor control)): 42.4%; remaining activity at 1000 µM ([1]; bovine heart mitochondrial membranes, inhibitor 1.00 mM, read-out: average % (rate, % of no-inhibitor control)): 30.7%; remaining activity at 2000 µM ([1]; bovine heart mitochondrial membranes, inhibitor 2.00 mM, read-out: average % (rate, % of no-inhibitor control)): 19.2% |

— publication PMC4977651, “Molecular features of biguanides required for targeting of mitochondrial respiratory complex I and activation of AMP-kinase” (BMC Biology, 2016)
